Here are results for 1 compound from US9258954B2, “Plant having enhanced resistance to environmental stress” (RIKEN, priority 2011, dated 2016).

The subject of this assay is Arabidopsis thaliana L. wild strain (Col-0). The note with it: 10 mM aqueous acetic acid applied to soil in pot for 9 days; compared to plant without treatment and plant treated with 0.5 mM acetic acid; FIG. 19.

Method: hda6 mutant strain (axe 1-5 or sil1) and a parent strain or wild strain thereof were grown in pots at 22° C. under the conditions of 16 hours in the light and 8 hours in the dark for 3 weeks. Thereafter, water supply was terminated and the cultivation was continued at 22° C. and a humidity of 40% under the conditions of 16 hours in the light and 8 hours in the dark for about 2 weeks. In this manner, drought stress was gently given to the strains. After water was supplied again, the strains were grown at 22° C. under the conditions of 16 hours in the light and 8 hours in the dark for 5 days. The number of plants which recovered the growth was counted to determine a survival rate. The experiment was repeated three times using 40 plants per strain per experiment to calculate an average and standard deviation for the survival rate.

On to `CC(=O)O` [acetic acid], for which the “drought-stress resistance (survival after drought-stress resistance test)” value is reported as “remarkably strong drought-stress resistance”.
